The results in this text go back to patent US10124004B2, “Pyrido[3,4-d]pyrimidine derivative and pharmaceutically acceptable salt thereof” (Teijin Pharma Limited, priority 2015, dated 2018).

One test concerns the target T1, CDK4/cyclin D3 (Homo sapiens, UniProt P11802).
T1 construct: purchased Carna Biosciences, Inc. QS S Assist CDK4/Cyclin D3_FP Kit
The test is described as follows: Human CDK4/cyclin D3 inhibitory activity (QS S Assist CDK4/Cyclin D3_FP Kit, IMAP fluorescence polarization). In kind it is biochemical. The settings on record: Human CDK4/cyclin D3 inhibitory activity; read-out: CDK4 Activity symbol. A digest of the protocol: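 Percent inhibition, relative to DMSO with and without enzyme, was curve-fitted to give IC50 from polarization (ex 485, em 535 nm). The 45-min room-temperature reaction used 12.5-25 ng/well enzyme, kit ATP/substrate/metal mix, and HEPES pH 7.4 buffer with Tween20 and DTT, followed by 30-min IMAP binding in the dark.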

The target in a further test is T2, CDK2/cyclin A2 (Homo sapiens, UniProt P24941).
T2 construct: purchased Carna Biosciences, Inc. QS S Assist CDK2/Cyclin A2_FP Kit
The test is described as follows: Human CDK2/cyclin A2 inhibitory activity (QS S Assist CDK2/Cyclin A2_FP Kit, IMAP fluorescence polarization). The settings on record: Human CDK2/cyclin A2 inhibitory activity; read-out: CDK2 Activity symbol. In kind it is biochemical. The essentials:
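Kinase activity read as fluorescence polarization (485/535 nm) after phosphorylated fluorescent substrate binds IMAP reagent (30 min, RT, dark). Enzyme (2.5 ng/well) reacted 60 min at RT with ATP/substrate/metal in HEPES pH 7.4 buffer with Tween 20 and DTT; no-enzyme wells define 0% activity; IC50 by curve fit.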

T1 sequence (P11802 whole entry): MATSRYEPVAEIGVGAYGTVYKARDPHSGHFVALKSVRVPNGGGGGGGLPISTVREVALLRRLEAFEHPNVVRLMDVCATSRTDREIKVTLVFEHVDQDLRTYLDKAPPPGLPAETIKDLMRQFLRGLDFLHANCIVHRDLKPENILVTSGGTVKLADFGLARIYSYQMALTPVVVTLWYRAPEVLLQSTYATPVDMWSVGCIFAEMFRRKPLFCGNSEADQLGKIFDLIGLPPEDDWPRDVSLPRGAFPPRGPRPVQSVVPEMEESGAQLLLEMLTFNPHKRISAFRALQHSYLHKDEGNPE
T1 sequence (P30281 whole entry partner): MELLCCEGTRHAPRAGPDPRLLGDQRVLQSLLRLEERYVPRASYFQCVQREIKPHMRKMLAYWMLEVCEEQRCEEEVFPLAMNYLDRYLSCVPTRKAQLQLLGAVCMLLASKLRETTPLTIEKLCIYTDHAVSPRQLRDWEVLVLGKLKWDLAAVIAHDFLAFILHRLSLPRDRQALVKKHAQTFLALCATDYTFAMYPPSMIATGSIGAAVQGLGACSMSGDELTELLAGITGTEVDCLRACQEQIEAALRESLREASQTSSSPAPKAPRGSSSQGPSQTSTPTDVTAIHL

Consider `CC(C)Nc1nc([C@@H](C)O)cc2cnc(Nc3ccc(CN4CCC(C(C)(C)O)CC4)cn3)nc12` [Compound 549], for which the results for the IC50 at CDK4/cyclin D3 and at CDK2/cyclin A2 were below 10 nM and at least 100 nM, respectively.
In the same order, the values of `CC(C)Nc1nc([C@@H](C)O)cc2cnc(Nc3ccc(OCCN4CCNCC4=O)cn3)nc12` [Compound 550] are below 10 nM and at least 100 nM.
In the same order, the values of `CO[C@H](C)c1cc2cnc(Nc3ccc(N4CCCCC(N)C4=O)cn3)nc2c(NC(C)C)n1` (stereo partly drawn) [Compound 553] are below 10 nM and at least 100 nM.
With `CC(C)Nc1nc([C@@H](C)O)cc2cnc(Nc3ccc(N4CCCCC(N)C4=O)cn3)nc12` (stereo partly drawn) [Compound 554], the IC50 is below 10 nM at CDK4/cyclin D3 and at least 100 nM on CDK2/cyclin A2.
The like results for `CC(C)Nc1nc([C@@H](C)O)cc2cnc(Nc3ccc(CN4CCN(CCO)CC4)cn3)nc12` [Compound 555] were, in that order, below 10 nM and at least 100 nM.
For `CO[C@H](C)c1cc2cnc(Nc3ccc(N4C[C@H]5CCN[C@H]5C4=O)cn3)nc2c(NC(C)C)n1` [Compound 556], the values for the IC50 at CDK4/cyclin D3 and on CDK2/cyclin A2 were below 10 nM and 10 to 100 nM, respectively.
As for `CO[C@H](C)c1cc2cnc(Nc3ccc(OCC(=O)N4CCNCC4)cn3)nc2c(NC(C)C)n1` [Compound 557], the IC50 on CDK4/cyclin D3 was below 10 nM; on CDK2/cyclin A2, at least 100 nM.
In the same order, the values of `CC(C)Nc1nc([C@@H](C)O)cc2cnc(Nc3ccc(N4C[C@H]5CCN[C@H]5C4=O)cn3)nc12` [Compound 558] are below 10 nM and 10 to 100 nM.
With `CC(C)Nc1nc([C@@H](C)O)cc2cnc(Nc3ccc(OCC(=O)N4CCNCC4)cn3)nc12` [Compound 559], the IC50 is below 10 nM at CDK4/cyclin D3 and at least 100 nM on CDK2/cyclin A2.
The like results for `CO[C@H](C)c1cc2cnc(Nc3ccc(N4CCC(C)(N)CC4)nn3)nc2c(NC(C)C)n1` [Compound 560] were, in that order, below 10 nM and at least 100 nM.
In the same order, the values of `CC(C)Nc1nc([C@@H](C)O)cc2cnc(Nc3ccc(N4CCC(C)(N)CC4)nn3)nc12` [Compound 561] are below 10 nM and at least 100 nM.
As to `CC(C)Nc1nc([C@@H](C)O)cc2cnc(Nc3ccc(N4CC5(CNC5)C4)nn3)nc12` [Compound 562], the IC50 on CDK4/cyclin D3 is below 10 nM; on CDK2/cyclin A2, at least 100 nM.
In the same order, the values of `CC(C)Nc1nc([C@@H](C)O)cc2cnc(Nc3ccc(O[C@H]4CCNC4)cn3)nc12` [Compound 566] are below 10 nM and at least 100 nM.
The like results for `CC(C)Nc1nc([C@@H](C)O)cc2cnc(Nc3ccc(O[C@@H]4CCNC[C@H]4F)cn3)nc12` [Compound 567] were, in that order, below 10 nM and at least 100 nM.
Turning to `CC(C)Nc1nc([C@@H](C)O)cc2cnc(Nc3ccc(O[C@H]4CCNC[C@H]4F)cn3)nc12` [Compound 569], the values for the IC50 on CDK4/cyclin D3 and at CDK2/cyclin A2 were below 10 nM and at least 100 nM, respectively.
The like results for `CC(C)Nc1nc([C@@H](C)O)cc2cnc(Nc3ccc(O[C@@H]4CCNC4)cn3)nc12` [Compound 572] were, in that order, below 10 nM and at least 100 nM.
Take `CC(C)Nc1nc([C@@H](C)O)cc2cnc(Nc3ccc(N4CC5(CCN5)C4)nn3)nc12` [Compound 573]: the IC50 on CDK4/cyclin D3 is below 10 nM; at CDK2/cyclin A2, at least 100 nM.
The like results for `CC(C)Nc1nc([C@@H](C)O)cc2cnc(Nc3ccc(N4CC5(CCNC5)C4)nn3)nc12` [Compound 574] were, in that order, below 10 nM and at least 100 nM.
In the same order, the values of `CC(C)Nc1nc([C@@H](C)O)cc2cnc(Nc3ccc(N4CC5(CCNCC5)C4)nn3)nc12` [Compound 575] are below 10 nM and at least 100 nM.
In the same order, the values of `CC(C)Nc1nc([C@@H](C)O)cc2cnc(Nc3ccc(N4CC5(CC(N)C5)C4)nn3)nc12` [Compound 576] are below 10 nM and at least 100 nM.
On to `CC(C)Nc1nc([C@@H](C)O)cc2cnc(Nc3ccc(OCC4CNC4)nn3)nc12` [Compound 579], for which the results for the IC50 on CDK4/cyclin D3 and on CDK2/cyclin A2 were below 10 nM and at least 100 nM, respectively.
